According to ChEMBL document CHEMBL1148534, “p38 MAP kinase inhibitors: metabolically stabilized piperidine-substituted quinolinones and naphthyridinones” (Bioorg Med Chem Lett, 2006):

Key:
[1] = biological target: T1, Mitogen-activated protein kinase 14 (Homo sapiens, UniProt Q16539); test: Inhibition of LPS stimulated TNF alpha release in whole blood; type: functional, tissue-based
[2] = Oral bioavailability in rhesus monkey; type: ADME, organism-based, Macaca mulatta; settings: in vivo
[3] = biological target: T1, Mitogen-activated protein kinase 14; test: Inhibition of P38 alpha MAPK
[4] = Plasma clearance in rat; type: ADME, organism-based
[5] = biological target: T1, Mitogen-activated protein kinase 14; test: Inhibition of TNF alpha release in THP1 cells; type: functional, cell-based, THP-1
[6] = Half life in rhesus monkey, iv; type: ADME, organism-based, Macaca mulatta; settings: in vivo
[7] = Volume of distribution in rhesus monkey; type: ADME, organism-based, Macaca mulatta; settings: in vivo, read-out: Vdss
[8] = Half life in rat, iv; type: ADME, organism-based; settings: in vivo
[9] = Oral bioavailability in rat; type: ADME, organism-based; settings: in vivo
[10] = Plasma clearance in rhesus monkey; type: ADME, organism-based, Macaca mulatta
[11] = Volume of distribution in rat; type: ADME, organism-based; settings: in vivo, read-out: Vdss
[12] = Oral bioavailability in dog; type: ADME, organism-based, Canis lupus familiaris; settings: in vivo
[13] = Plasma clearance in dog; type: ADME, organism-based, Canis lupus familiaris
[14] = Half life in dog, iv; type: ADME, organism-based, Canis lupus familiaris; settings: in vivo
[15] = Volume of distribution in dog; type: ADME, organism-based, Canis lupus familiaris; settings: in vivo, read-out: Vdss

T1 sequence (Q16539 whole entry): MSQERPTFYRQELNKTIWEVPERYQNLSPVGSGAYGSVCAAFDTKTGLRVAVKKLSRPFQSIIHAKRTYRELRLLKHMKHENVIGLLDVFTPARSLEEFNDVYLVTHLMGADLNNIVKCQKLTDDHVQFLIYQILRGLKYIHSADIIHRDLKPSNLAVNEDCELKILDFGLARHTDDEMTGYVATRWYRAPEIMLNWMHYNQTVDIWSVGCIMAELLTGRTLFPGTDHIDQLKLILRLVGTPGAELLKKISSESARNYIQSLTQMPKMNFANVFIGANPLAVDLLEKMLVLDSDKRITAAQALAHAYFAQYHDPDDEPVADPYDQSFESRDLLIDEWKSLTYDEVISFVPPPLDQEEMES

| IC50 [1] [nM] | bioavailability [2] [%] | IC50 [3] [nM] | clearance [4] [mL/min/kg] | IC50 [5] [nM] | half-life [6] [h] | Vd [7] [L/kg] | half-life [8] [h] | bioavailability [9] [%] | clearance [10] [mL/min/kg] | Vd [11] [L/kg] | bioavailability [12] [%] | clearance [13] [mL/min/kg] | half-life [14] [h] | Vd [15] [L/kg] | Structure (SMILES) |
| --- | --- | --- | --- | --- | --- | --- | --- | --- | --- | --- | --- | --- | --- | --- | --- |
| 5.3 | 33 | 0.38 | 39.6 | 1.6 | 5.32 | 22.1 | 3.69 | 67.3 | 47.5 | 11.4 |  |  |  |  | CC(C)(C)N1CCC(c2cc3c(ccc(=O)n3-c3c(Cl)cccc3Cl)c(-c3ccc(F)cc3Cl)n2)CC1 |
| 28 |  | 8.1 |  | 1.3 |  |  |  |  |  |  |  |  |  |  | COC(=O)C(C)N1CCC(c2cc(-c3ccc(F)cc3Cl)c3ccc(=O)n(-c4c(Cl)cccc4Cl)c3c2)CC1 (stereo not given) |
|  |  | 1.87 |  | 0.77 |  |  |  |  |  |  |  |  |  |  | CC(C)(C)N1CCC(Oc2cc(-c3ccc(F)cc3F)c3ccc(=O)n(-c4c(Cl)cccc4Cl)c3c2)CC1 |
| 1 | 31.5 | 0.3 | 18.5 | 0.42 | 9.55 | 28.6 | 9.96 | 57 | 35.1 | 3.77 |  |  |  |  | CC(C)(C)N1CCC(c2cc(-c3ccc(F)cc3Cl)c3ccc(=O)n(-c4c(F)cccc4F)c3c2)CC1 |
| 28 |  | 1.3 | 59 | 3.2 |  |  | 0.44 | 0.11 |  | 0.7 |  |  |  |  | C[C@@H](C(=O)O)N1CCC(c2cc(-c3ccc(F)cc3Cl)c3ccc(=O)n(-c4c(Cl)cccc4Cl)c3c2)CC1 |
| 50.8 |  | 1.15 |  | 0.74 |  |  |  |  |  |  |  |  |  |  | CC(C)(C)N1CC=C(c2cc(-c3ccc(F)cc3Cl)c3ccc(=O)n(-c4c(Cl)cccc4Cl)c3c2)CC1 |
| 5.2 | 23 | 0.51 | 32.3 | 0.69 | 6.5 | 21.6 | 9.05 | 62 | 41.5 | 24 | 99.3 | 20.5 | 15.5 | 23.8 | CC(C)(C)N1CCC(c2cc3c(ccc(=O)n3-c3c(Cl)cccc3Cl)c(-c3ccc(F)cc3F)n2)CC1 |
| 130 |  | 6.7 |  | 2.59 |  |  |  |  |  |  |  |  |  |  | COC(=O)C(C)(C)N1CCC(c2cc(-c3ccc(F)cc3Cl)c3ccc(=O)n(-c4c(Cl)cccc4Cl)c3c2)CC1 |
| 2.4 | 56.5 | 0.14 | 11.9 | 1.7 | 9.7 | 26.2 | 4.13 | 69.3 | 29.2 | 3.82 | 36.2 | 5.5 | 19.8 | 8.99 | CC(C)(C)N1CCC(c2cc(-c3ccc(F)cc3F)c3ccc(=O)n(-c4c(Cl)cccc4Cl)c3c2)CC1 |
| 6.4 |  | 0.1 |  | 1 |  |  |  |  |  |  |  |  |  |  | CC(C)(C)N1CCC(c2cc(-c3ccccc3Cl)c3ccc(=O)n(-c4c(Cl)cccc4Cl)c3c2)CC1 |
| 13 |  | 1.6 | 34.1 | 1.8 |  |  | 2.33 | 32.3 |  | 6.17 |  |  |  |  | CC(C)(C)N1CCC(Oc2cc(-c3ccccc3Cl)c3ccc(=O)n(-c4c(Cl)cccc4Cl)c3c2)CC1 |
| 25 |  | 3.2 |  | 3.8 |  |  |  |  |  |  |  |  |  |  | C[C@H](C(=O)O)N1CCC(c2cc(-c3ccc(F)cc3Cl)c3ccc(=O)n(-c4c(Cl)cccc4Cl)c3c2)CC1 |
| 79.1 |  | 0.84 |  | 3.75 |  |  |  |  |  |  |  |  |  |  | CC(C)(C(=O)O)N1CCC(c2cc(-c3ccc(F)cc3Cl)c3ccc(=O)n(-c4c(Cl)cccc4Cl)c3c2)CC1 |
| 18.4 |  | 10.5 |  | 2.2 |  |  |  |  |  |  |  |  |  |  | CC(C)(C)N1CCC(Oc2cc(-c3ccc(F)cc3F)c3ccc(=O)n(-c4c(F)cccc4F)c3c2)CC1 |
| 24.2 |  | 0.26 | 30.1 | 3.32 |  |  | 3.17 | 36 |  | 7.32 |  |  |  |  | CC1(C)C=C(c2cc(-c3ccc(F)cc3Cl)c3ccc(=O)n(-c4c(Cl)cccc4Cl)c3c2)CC(C)(C)N1 |
| 16.2 |  | 7.1 |  | 2.4 |  |  |  |  |  |  |  |  |  |  | CC(C)(C)N1CCC(Oc2cc(-c3ccc(F)cc3Cl)c3ccc(=O)n(-c4c(Cl)cccc4Cl)c3c2)CC1 |
| 2.6 | 49 | 0.31 | 14 | 0.27 | 13.6 | 52.8 | 3.5 | 47.7 | 52.9 | 3.84 | 83 | 26.8 | 5.59 | 23.8 | CC(C)(C)N1CCC(c2cc(-c3ccc(F)cc3Cl)c3ccc(=O)n(-c4c(Cl)cccc4Cl)c3c2)CC1 |
| 6.8 |  | 1.4 | 25 |  |  |  | 5.1 | 66 |  | 10.1 | 9.35 | 37.6 | 5.42 | 15.1 | CC(C)(C)N1CCC(c2cc3c(ccc(=O)n3-c3c(Cl)cccc3Cl)c(-c3ccccc3Cl)n2)CC1 |

| Structure (SMILES) | IC50 [1] [nM] | bioavailability [2] [%] | IC50 [3] [nM] | clearance [4] [mL/min/kg] | IC50 [5] [nM] | half-life [6] [h] | Vd [7] [L/kg] | half-life [8] [h] | bioavailability [9] [%] | clearance [10] [mL/min/kg] | Vd [11] [L/kg] | bioavailability [12] [%] | clearance [13] [mL/min/kg] | half-life [14] [h] | Vd [15] [L/kg] |
| --- | --- | --- | --- | --- | --- | --- | --- | --- | --- | --- | --- | --- | --- | --- | --- |
| O=c1ccc2c(-c3ccc(F)cc3Cl)cc(C3CC4CCC(C3)N4)cc2n1-c1c(Cl)cccc1Cl (stereo not given) | 14.5 |  | 0.45 | 37 | 0.89 |  |  | 2.56 | 13 |  | 6.2 |  |  |  |  |
| CN1C2CCC1CC(c1cc(-c3ccc(F)cc3Cl)c3ccc(=O)n(-c4c(Cl)cccc4Cl)c3c1)C2 (stereo not given) | 7.71 |  | 0.61 | 27 | 0.82 |  |  | 3.12 | 30 |  | 6.87 |  |  |  |  |
| CC(C)N1C2CCC1CC(c1cc(-c3ccc(F)cc3Cl)c3ccc(=O)n(-c4c(Cl)cccc4Cl)c3c1)C2 (stereo not given) | 8.51 |  | 0.51 | 18 | 0.99 |  |  | 3.36 | 44 |  | 5.23 |  |  |  |  |
